Source: US20230150951A1, “2,5- OR 2,6-DISUBSTITUTED HYDROQUINONE DERIVATIVES WITH AT LEAST ONE CARBOXY, SULFO OR AMIDO GROUP USEFUL AS MEDICAMENTS” (OM PHARMA SA, priority 2020, published 2023)
Entries after “also recorded” stand apart in the source; their conditions may differ.

Key:
[1] = tested on: acute pancreatitis murine model; assay: Caerulein-induced acute pancreatitis murine model; type: in vivo, Balb/c mice; design: Serum IL33 level / Serum TGF-B level: unit not given here; conditions: for Schmidt Score (H&E): induced + vehicle = 10, non-induced = 0; for Pancreas IL33 level / Pancreas MPO activity / Pancreas TGF-B level: terminal pancreatic tissue; for Serum IL33 level / Serum TGF-B level / Serum amylase level / Serum lipase level: terminal serum; for pancreatic tissue levels of IL33: compared to the induced group
Experimental: Therapeutic efficacy of the compounds according to the present invention was assessed on an acute pancreatitis murine model. Tissue samples were obtained to allow post in-life analysis of pancreatitis parameters. Plasma samples were also obtained to assess animal exposure levels after administration of the compounds.
Animals: A total of 70 female Balb/c mice aged 8-10 weeks weighing approximately 20-25 g were used for the study (Charles River). After 7 days acclimatization, they were allocated into the different groups. […] Cages, bedding, and water were sanitized before use. Animals were provided with Corn-o-cobs enrichment bedding to provide environment enrichment and nesting material. […] The animal holding room were maintained as follows—room temperature at 20-24° C., humidity at 30-70% and a 12 h light/dark cycle used. Although animals used in this study were immuno-competent, preparation of dosing solutions and dosing/weighing of animals were carried out in a sterile biosafety cabinet.
Final formulation was in 5% DMSO, 10% Solutol, 10% PEG400, 75% 0.9% Saline and pH adjusted to 7 with 0.5M NaOH solution.
Final formulation is in 5% DMSO, 10% Solutol, 10% PEG400, 75% 0.9% Saline and pH adjusted to 7 with 0.5M NaOH solution. For per os (PO) dosing IVc-059a is formulated in water. Drug solutions were formulated on the day of dosing.
The purposes of this study were to assess efficacy compounds in an acute pancreatitis model (14 days), generate tissue samples to allow post in-life analysis of pancreatitis parameters and generate four plasma samples to assess animal exposure levels after first and last injection obtained from blood samples taken 1 h and 24 h after first and last injection.
Study Design: On the first study day animals were randomly be assigned to treatment groups, ensuring an equal spread of bodyweight. Mice (except negative control group) were treated with test compounds were given 5 minutes prior to caerulein dosing, followed by injection with caerulein at […] via intraperitoneal route (IP) daily during the study.
Treatment of test compounds were given 5 minutes prior to caerulein dosing.
Sampling and post in-life analyses: at times indicated above a whole blood sample (60 μl) were taken from the lateral tail vein into tubes coated with K2-EDTA. Plasma samples were prepared and stored frozen at −20° C. Plasma samples were sent to client bioanalysis provider Eurofins (FR) for quantification of compound.
Terminal Sampling: Prior to termination animals were weighed. Terminal study animals were culled via CO2 inhalation. A terminal blood sample was taken via cardiac puncture and plasma prepared. Lipase and Amylase activities were measured via ELISA using commercially available ELISA kits. Remaining plasma was stored for future cytokine analyses. Pancreas tissue was resected and weighed, and a section ([…]) snap frozen and analysed for quantification of compound in pancreas sample. A section ([…]) was processed for measurement of MPO activity, IL-33 and TGF-B levels via ELISA. The remainder was fixed in formalin and embedded in paraffin wax. H&E staining was carried out and section assessed using Schmidts standard scoring system, examining: edema, inflammatory infiltration, parenchymal necrosis, haemorrhage. Massons' Trichrome staining was carried out and area covered by fibrotic tissue quantified digitally using QuPath software. Terminal serum samples was used to assess blood chemistry using an IdeXX CHEM15 and LYTE4 clip (4 animals per treatment group).
Histopathology assessment of pancreatic injury based on 4 criteria: Oedema, Inflammatory infiltration, Parenchymal necrosis, Haemorrhage and scored as described below.
Schmidt score is the evaluation of the efficacy of the compounds based on the four histopathology criteria as described in the table below.

[2] = tested on: human retinal endothelial cells (HRECs); assay: Inner blood retinal barrier: HREC monolayer permeability to FITC-dextran; type: cell-based; conditions: for p < 0.05 (HREC permeability versus diabetic milieu): IL-β, after 90 min
Excerpt: The mechanisms of actions involved in the anti-permeability effect of the tested treatments were explored by assessing permeability to fluorescent dextran and proinflammatory cytokines production using their mRNA expression levels by RT-PCR.
Inner Blood Retinal Barrier conditions: primary human retinal endothelial cells (HRECs) were obtained from a vial of cryopreserved cells purchased from Innoprot (Vizcay, Spain). These cells were isolated from human retinal tissue of cadaveric eyes digested with 0.1 mg/mL collagenase type I at 37° C. for 1 hour. Then, endothelial cells were finally selected with CD31 antibody-coated magnetic beads (DynaBeads; Dynal, Oslo, Norway). HRECs were thawed in the laboratory and cultured in endothelial basal medium (EBM) containing, 5.5 mM D-glucose, 5% FBS (Fetal Bovine Serum), 100 U/mL penicillin, 100 μg/mL streptomycin, and ECG (Endothelial Cell Growth Supplement) supplement (Innoprot, Vizcay, Spain). Human fibronectin (MerckMillipore, Madrid, Spain) at 5 μg/mL was used for cell attachment. Cells at passages 2-3 will be used for the experiments. For experimentation, HRECs were grown to confluence and then cell culture media was changed to medium supplemented with 1% FBS for 24 h and then exposed to different treatments.
Conditions treatments: The same conditions specified for the experiment in ARPE-19 cells were used.
Measurement of HREC permeability: Permeability in HREC monolayers were obtained on permeable supports at 12×10^5 cells/well (24 wells, PCF filters, Merk Millipore). Inserts were incubated for 48 hours at 37° C. in 5% CO2-air to form the monolayer. At the end, medium was serum depleted 24 h before to proceed with the treatments. The lower chamber was filled with 600 μL of complete EBM medium and the upper chamber with 100 μL of cell suspension in serum depleted (1%).
To detect changes in the permeability, 100 μg/ml of fluorescent FITC-DEXTRAN (Sigma, Madrid, Spain), was added to the upper side of the insert. Aliquots of 200 μL from the basal compartment was read in a SpectraMax Gemini (Molecular Devices, Sunnyvale, Calif.) at a wavelength of excitation/emission 485/528 nm every 30 min. Finally, the concentration of dextran was determined by extrapolation of the fluorescence reads in a standard curve. Each condition was tested in triplicate.

[3] = second experiment, IV, 15 mg/kg, Pirfenidone 100 mg/kg
[4] = No 3-5: 25 mM D-Gluc + compound 25 μg/mL
[5] = No 6-8: 25 mM D-Gluc + compound 50 μg/mL + VEGF, TNF-α, IL-β (so in the source)
[6] = No 11-13: 25 mM D-Gluc + compound 25 μg/mL + VEGF, TNF-α, IL-β (diabetic milieu)
[7] = No 11-13: compound 25 μg/mL + VEGF, TNF-α
[8] = No 14-16: 25 mM D-Gluc + compound 50 μg/mL + VEGF, TNF-α, IL-β (diabetic milieu)
[9] = 1st experiment, caerulein induced, 15 mg/kg IV, Ib-010a and IVc-059a 150 mg/kg PO, Pirfenidone 40 mg/kg IV
[10] = 1st experiment, 15 mg/kg IV, Ib-010a and IVc-059a 150 mg/kg PO, Pirfenidone 40 mg/kg IV

| Structure (SMILES) | Amylase [1, 3] [mU/mL] | IL-33 [1, 3] [ng/mL] | Lipase [1, 3] [mU/mL] | MPO [1, 3] [U/mg] | Schmidt Score [1, 3] | TGF-B [1, 3] [ng/mL] | Trichome staining (Fibrosis % area) [1, 3] [% area] | % permeability HREC [2, 4] [%] | % permeability HREC [2, 5] [%] | % permeability HREC [2, 6] [%] | p < 0.05 (HREC permeability versus diabetic milieu) [2, 7] | % permeability HREC [2, 8] [%] | Acinar cell necrosis (group mean score) [1, 9] | Haemorrhage (group mean score) [1, 9] | Interstitial oedema (group mean score) [1, 9] | Mean terminal BW (% of initial) [1, 9] | Mean terminal pancreas weight [1, 9] [g] | Pancreas histopathology observations (H&E) [1, 9] | Schmidt Score (H&E) [1, 9] | Pancreas IL33 level [1, 10] | further results |
| --- | --- | --- | --- | --- | --- | --- | --- | --- | --- | --- | --- | --- | --- | --- | --- | --- | --- | --- | --- | --- | --- |
| O=C(O)c1cc(NC(=O)c2cc(O)cc(C(=O)Nc3ccc(O)c(C(=O)O)c3)c2O)ccc1O [IIc-007a, 5-(3-(3-carboxy-4-hydroxyphenylaminocarbonyl)-2,5-dihydroxybenzamido)-2-hydroxy benzoic acid] | 45.325 | 340 ± 211 | 6.481 | 2.74 ± 0.76 | 8.3 ± 1.6 | 500 ± 195 | 1.821 ± 1.12 | 136.3 ± 16.7 | 147.7 ± 17.6 | 135.8 ± 16.6 | * (* p < 0.05 for FITC dextran leakage measured after 90 min in [ng/mL/cm^2] in comparison with diabetic milieu (25 mM D-Gluose + VEGF, TNF-α, IL-β)) | 145.2 ± 8.8 | – | – | – | – | – | – | – | – | – |
| O=C(O)c1cc(O)cc(CS(=O)(=O)Cc2cc(O)cc(C(=O)O)c2O)c1O [IVc-059a, 3-((2,5-Dihydroxy-3-carboxyphenyl)methylsulfonylmethyl)-2,5-dihydroxybenzoic acid] | 41.149 | 215 ± 84 | 4.324 | 1.813 ± 0.405 | 10.63 ± 2.33 | 403 ± 84 | 1.048 ± 0.449 | 109.9 ± 24.7 | 135.4 ± 6.7 | 124.0 ± 6.3 | * (* p < 0.05 for FITC dextran leakage measured after 90 min in [ng/mL/cm^2] in comparison with diabetic milieu (25 mM D-Gluose + VEGF, TNF-α, IL-β)) | 115.3 ± 14.7 | 1.0 | 1.0 | 1.0 | 93.3 % of initial | 0.09 | Mild oedema less observed; also recorded: Mild haemorrhage less observed; also recorded: Mild acinar cell necrosis observed; also recorded: Mild leukocyte infiltration observed; also recorded: Some pancreatic islet hyperplasia observed; also recorded: Disruption to the basophilic region | 4.0 | 86 ± 23 | Leukocyte infiltration (group mean score) [1, 9]: 1.0; Pancreas MPO activity [1, 10]: 2.88; Pancreas TGF-B level [1, 10]: 231 ± 199; Serum IL33 level [1, 10]: 46.54; Serum TGF-B level [1, 10]: 5.69; Serum amylase level [1, 10]: 38.56; Serum lipase level [1, 10]: 10.21; TGF-B levels in pancreas ([1]; first experiment, IV): decreased significantly; pancreatic tissue levels of IL33 ([1]; first experiment, IV): significant decrease; Global Schmidt score ([1]; first experiment, vs caerulein control animals): especially improved; Schmidt Score ([1]; second experiment, H&E sections): lower scores than the positive control pirfenidone; Lipase activity in serum ([1]; second experiment, pirfenidone 100 mg/kg, compounds 15 mg/k, vs vehicle treated animals): significantly lower than that in vehicle treated animals; MPO activity in pancreatic tissue ([1]; second experiment, vs induced vehicle treated controls): significantly lower than induced vehicle treated controls; p < 0.05 (HREC permeability versus diabetic milieu) ([2]; No 14-16: compound 50 μg/mL + VEGF, TNF-α): * (* p < 0.05 for FITC dextran leakage measured after 90 min in [ng/mL/cm^2] in comparison with diabetic milieu (25 mM D-Gluose + VEGF, TNF-α, IL-β)) |
| O=C(O)c1cc(NC(=O)c2cc(O)c(C(=O)Nc3ccc(O)c(C(=O)O)c3)cc2O)ccc1O [Ic-007a, 5-(4-(3-carboxy-4-hydroxyphenylaminocarbonyl)-2,5-dihydroxybenzamido)-2-hydroxy benzoic acid] | – | – | – | – | – | – | – | 126.3 ± 8.3 | 127.4 ± 2.1 | 111.6 ± 24.2 | * (* p < 0.05 for FITC dextran leakage measured after 90 min in [ng/mL/cm^2] in comparison with diabetic milieu (25 mM D-Gluose + VEGF, TNF-α, IL-β)) | 159.0 ± 23.9 | 1.0 | 1.0 | 1.0 | 91.2 % of initial | 0.109 | Mild oedema observed; also recorded: Mild haemorrhage observed; also recorded: Mild acinar cell necrosis observed; also recorded: Leukocyte infiltration observed; also recorded: Disruption to the basophilic region | 6.0 | 147 ± 47 | Pancreas MPO activity [1, 10]: 1.65; Pancreas TGF-B level [1, 10]: 188 ± 77; Serum IL33 level [1, 10]: 34.93; Serum TGF-B level [1, 10]: 6.17; Serum amylase level [1, 10]: 34.86; Serum lipase level [1, 10]: 9.28; TGF-B levels in pancreas ([1]; first experiment, IV): decreased significantly; pancreatic tissue levels of IL33 ([1]; first experiment, IV): significant decrease |
